The results in this text go back to BindingDB's records for patent US9018371 (Fm Therapeutics, 2015).

The assay addresses T1, Adenosine receptor A3 (Homo sapiens, UniProt P0DMS8).
T1 sequence (P0DMS8 whole entry): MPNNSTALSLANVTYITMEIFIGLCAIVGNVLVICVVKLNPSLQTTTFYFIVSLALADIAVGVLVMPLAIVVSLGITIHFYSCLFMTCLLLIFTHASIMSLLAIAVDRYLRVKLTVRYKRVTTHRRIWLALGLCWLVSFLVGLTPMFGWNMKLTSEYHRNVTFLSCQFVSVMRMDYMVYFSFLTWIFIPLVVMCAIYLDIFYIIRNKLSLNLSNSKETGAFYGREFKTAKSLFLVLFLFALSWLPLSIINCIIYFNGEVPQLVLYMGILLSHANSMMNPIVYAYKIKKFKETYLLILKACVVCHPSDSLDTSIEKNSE
The experiment in a line: Binding Assay.

Method: Incubation for 1 hr in a 370C incubator was followed by rapid filtration in a vacuum using a cell collector (TOMTEC, U.S.A.). Subsequently, the test tubes were washed three times with 3 ml of the buffer before radioactivity was measured using a -counter.

What is called Ki is a measure of affinity in units of concentration, obtained from inhibition or displacement. Lower therefore signals tighter binding. Compound `COc1ccccc1CNc1nc(Cl)nc2c1ncn2[C@@H]1SCC(O)[C@@H]1O` (stereo partly specified) [US9018371, 7] had a Ki of 19.9 nM.
